≈ marks a conversion by molar mass, not a printed value.
Tests used:
Staphylococcus aureus [1] = experiment: Antibacterial activity against Methicillin-resistant Staphylococcus aureus ATCC 33591 assessed as bacterial growth inhibition incubated for 20 to 24 hrs by microbroth serial dilution assay; type: functional; settings: time 20-24 hrs
Staphylococcus aureus [2] = experiment: Antibacterial activity against Methicillin-resistant Staphylococcus aureus ATCC 43300 assessed as bacterial growth inhibition incubated for 20 to 24 hrs by microbroth serial dilution assay; type: functional; settings: time 20-24 hrs
[3] = tested on: Staphylococcus epidermidis; experiment: Antibacterial activity against Methicillin-resistant Staphylococcus epidermidis ATCC 51625 assessed as bacterial growth inhibition incubated for 20 to 24 hrs by microbroth serial dilution assay; type: functional; settings: time 20-24 hrs
[4] = tested on: Staphylococcus epidermidis; experiment: Antibacterial activity against Methicillin-sensitive Staphylococcus epidermidis ATCC 12228 assessed as bacterial growth inhibition incubated for 20 to 24 hrs by microbroth serial dilution assay; type: functional; settings: time 20-24 hrs
Staphylococcus aureus [5] = experiment: Antibacterial activity against Staphylococcus aureus ATCC 25923 assessed as bacterial growth inhibition incubated for 20 to 24 hrs by microbroth serial dilution assay; type: functional; settings: time 20-24 hrs
[6] = tested on: Staphylococcus epidermidis; experiment: Selectivity ratio of MBC for antibacterial activity against Methicillin-sensitive Staphylococcus epidermidis […] to MIC for antibacterial activity against Methicillin-sensitive Staphylococcus epidermidis […]; type: functional
Staphylococcus aureus [7] = experiment: Selectivity ratio of MBC for antibacterial activity against Staphylococcus aureus to MIC for antibacterial activity against Staphylococcus aureus; type: functional
Staphylococcus aureus [8] = experiment: Antibacterial activity against Methicillin-sensitive Staphylococcus aureus ATCC 29213 assessed as bacterial growth inhibition incubated for 20 to 24 hrs by microbroth serial dilution assay
Staphylococcus aureus [9] = experiment: Selectivity ratio of MBC for antibacterial activity against Methicillin-sensitive Staphylococcus aureus ATCC 29213 to MIC for antibacterial activity against Methicillin-sensitive Staphylococcus aureus ATCC 29213
Staphylococcus aureus [10] = experiment: Selectivity ratio of MBC for antibacterial activity against Methicillin-resistant Staphylococcus aureus ATCC 33591 to MIC for antibacterial activity against Methicillin-resistant Staphylococcus aureus ATCC 33591; type: functional

In the case of `C=C[C@]1(C)C[C@@H](OC(=O)CSc2nc(N)nc3c2ncn3C(=O)Nc2ccc(C(C)=O)cc2)[C@@]2(C)C3C(=O)CC[C@@]3(CC[C@H]2C)[C@@H](C)[C@@H]1O` (some centres undefined), the MIC (Staphylococcus aureus [1]) was 0.0625 µg/mL (≈ 0.0907 µM), the MIC (Staphylococcus aureus [2]) was 0.125 µg/mL (≈ 0.181 µM) and the MIC [3] was 0.125 µg/mL (≈ 0.181 µM). For the same compound, the MIC [4] was 0.0156 µg/mL (≈ 0.0226 µM), the MIC (Staphylococcus aureus [5]) was 0.062 µg/mL (≈ 0.09 µM) and the Ratio [6] was greater than 4. The Ratio (Staphylococcus aureus [7]) was greater than 4, the MIC (Staphylococcus aureus [8]) was 0.125 µg/mL (≈ 0.181 µM) and the Ratio (Staphylococcus aureus [9]) was 4.
Work on `C=C[C@]1(C)C[C@@H](OC(=O)CSc2nc(N)nc3c2ncn3C(=O)NCc2ccc(OC)cc2)[C@@]2(C)C3C(=O)CC[C@@]3(CC[C@H]2C)[C@@H](C)[C@@H]1O` (some centres undefined) yielded an MIC (Staphylococcus aureus [1]) of 0.0625 µg/mL (≈ 0.0905 µM), an MIC (Staphylococcus aureus [2]) of 0.0625 µg/mL (≈ 0.0905 µM) and an MIC [3] of 0.0312 µg/mL (≈ 0.0452 µM). The MIC [4] was less than 0.0312 µg/mL, the MIC (Staphylococcus aureus [5]) was 0.125 µg/mL (≈ 0.181 µM) and the Ratio [6] was greater than 4. For the same compound, the Ratio (Staphylococcus aureus [7]) was greater than 4 and the MIC (Staphylococcus aureus [8]) was 0.0625 µg/mL (≈ 0.0905 µM).
`C=C[C@]1(C)C[C@@H](OC(=O)CSc2nc(N)nc3c2ncn3C(=O)Nc2cccc(NC(=O)OC(C)(C)C)c2)[C@@]2(C)C3C(=O)CC[C@@]3(CC[C@H]2C)[C@@H](C)[C@@H]1O` (some centres undefined) showed an MIC (Staphylococcus aureus [1]) of 0.25 µg/mL (≈ 0.328 µM), an MIC (Staphylococcus aureus [2]) of 0.25 µg/mL (≈ 0.328 µM) and an MIC [3] of 0.125 µg/mL (≈ 0.164 µM). It also gave an MIC [4] of 0.0156 µg/mL (≈ 0.0205 µM), an MIC (Staphylococcus aureus [5]) of 0.25 µg/mL (≈ 0.328 µM) and a Ratio (Staphylococcus aureus [10]) of 4. For the same compound, the Ratio [6] was greater than 4, the Ratio (Staphylococcus aureus [7]) was greater than 4 and the MIC (Staphylococcus aureus [8]) was 0.25 µg/mL (≈ 0.328 µM). The Ratio (Staphylococcus aureus [9]) was 2.
`C=C[C@]1(C)C[C@@H](OC(=O)CSc2nc(N)nc3c2ncn3C(=O)Nc2cccc(F)c2)[C@@]2(C)C3C(=O)CC[C@@]3(CC[C@H]2C)[C@@H](C)[C@@H]1O` (some centres undefined) was tested, and the MIC (Staphylococcus aureus [1]) was 0.25 µg/mL (≈ 0.376 µM), the MIC (Staphylococcus aureus [2]) was 0.25 µg/mL (≈ 0.376 µM) and the MIC [3] was 0.125 µg/mL (≈ 0.188 µM). For the same compound, the MIC [4] was 0.0156 µg/mL (≈ 0.0235 µM), the MIC (Staphylococcus aureus [5]) was 0.25 µg/mL (≈ 0.376 µM) and the Ratio [6] was greater than 4. The Ratio (Staphylococcus aureus [7]) was greater than 4 and the MIC (Staphylococcus aureus [8]) was 0.0625 µg/mL (≈ 0.094 µM).
`C=C[C@]1(C)C[C@@H](OC(=O)CSc2nc(N)nc3c2ncn3C(=O)NCc2ccccc2)[C@@]2(C)C3C(=O)CC[C@@]3(CC[C@H]2C)[C@@H](C)[C@@H]1O` (some centres undefined) was tested, and the MIC (Staphylococcus aureus [1]) was 0.0312 µg/mL (≈ 0.0473 µM), the MIC (Staphylococcus aureus [2]) was 0.0625 µg/mL (≈ 0.0946 µM) and the MIC [3] was 0.0625 µg/mL (≈ 0.0946 µM). The MIC [4] was less than 0.0078 µg/mL, the MIC (Staphylococcus aureus [5]) was 0.0312 µg/mL (≈ 0.0473 µM) and the Ratio [6] was greater than 4. It also gave a Ratio (Staphylococcus aureus [7]) greater than 4 and an MIC (Staphylococcus aureus [8]) of 0.0625 µg/mL (≈ 0.0946 µM).
Work on `C=C[C@]1(C)C[C@@H](OC(=O)CSc2nc(N)nc3c2ncn3C(=O)c2ccc([N+](=O)[O-])cc2)[C@@]2(C)C3C(=O)CC[C@@]3(CC[C@H]2C)[C@@H](C)[C@@H]1O` (some centres undefined) yielded an MIC (Staphylococcus aureus [1]) of 0.125 µg/mL (≈ 0.185 µM), an MIC (Staphylococcus aureus [2]) of 0.0625 µg/mL (≈ 0.0923 µM) and an MIC [3] of 0.0625 µg/mL (≈ 0.0923 µM). The MIC [4] was less than 0.0078 µg/mL, the MIC (Staphylococcus aureus [5]) was 0.125 µg/mL (≈ 0.185 µM) and the Ratio [6] was greater than 4. For the same compound, the Ratio (Staphylococcus aureus [7]) was greater than 4 and the MIC (Staphylococcus aureus [8]) was 0.0625 µg/mL (≈ 0.0923 µM).
`C=C[C@]1(C)C[C@@H](OC(=O)CSc2nc(N)nc3c2ncn3C(=O)CCc2ccccc2)[C@@]2(C)C3C(=O)CC[C@@]3(CC[C@H]2C)[C@@H](C)[C@@H]1O` (some centres undefined) showed an MIC (Staphylococcus aureus [1]) of 0.125 µg/mL (≈ 0.189 µM), an MIC (Staphylococcus aureus [2]) of 0.125 µg/mL (≈ 0.189 µM) and an MIC [3] of 0.125 µg/mL (≈ 0.189 µM). The MIC [4] was 0.0156 µg/mL (≈ 0.0236 µM), the MIC (Staphylococcus aureus [5]) was 0.25 µg/mL (≈ 0.379 µM) and the Ratio [6] was greater than 4. For the same compound, the Ratio (Staphylococcus aureus [7]) was 4, the MIC (Staphylococcus aureus [8]) was 0.125 µg/mL (≈ 0.189 µM) and the Ratio (Staphylococcus aureus [9]) was greater than 4.
`C=C[C@]1(C)C[C@@H](OC(=O)CSc2nc(N)nc3c2ncn3C(=O)NCc2ccc(C)cc2)[C@@]2(C)C3C(=O)CC[C@@]3(CC[C@H]2C)[C@@H](C)[C@@H]1O` (some centres undefined) was tested, and the MIC (Staphylococcus aureus [1]) was 0.0625 µg/mL (≈ 0.0926 µM), the MIC (Staphylococcus aureus [2]) was 0.0625 µg/mL (≈ 0.0926 µM) and the MIC [3] was 0.0625 µg/mL (≈ 0.0926 µM). For the same compound, the MIC [4] was less than 0.0312 µg/mL, the MIC (Staphylococcus aureus [5]) was 0.125 µg/mL (≈ 0.185 µM) and the Ratio [6] was greater than 4. For the same compound, the Ratio (Staphylococcus aureus [7]) was greater than 4, the MIC (Staphylococcus aureus [8]) was 0.125 µg/mL (≈ 0.185 µM) and the Ratio (Staphylococcus aureus [9]) was 4.
For `C=C[C@]1(C)C[C@@H](OC(=O)CSc2nc(N)nc3c2ncn3C(=O)NCc2ccccc2OC)[C@@]2(C)C3C(=O)CC[C@@]3(CC[C@H]2C)[C@@H](C)[C@@H]1O` (some centres undefined), the MIC (Staphylococcus aureus [1]) was 0.125 µg/mL (≈ 0.181 µM), the MIC (Staphylococcus aureus [2]) was 0.0625 µg/mL (≈ 0.0905 µM) and the MIC [3] was 0.0625 µg/mL (≈ 0.0905 µM). The MIC [4] was 0.0156 µg/mL (≈ 0.0226 µM), the MIC (Staphylococcus aureus [5]) was 0.125 µg/mL (≈ 0.181 µM) and the Ratio (Staphylococcus aureus [10]) was 4. For the same compound, the Ratio [6] was greater than 4, the Ratio (Staphylococcus aureus [7]) was greater than 4 and the MIC (Staphylococcus aureus [8]) was 0.0625 µg/mL (≈ 0.0905 µM). The Ratio (Staphylococcus aureus [9]) was 2.
Compound `C=C[C@]1(C)C[C@@H](OC(=O)CSc2nc(N)nc3c2ncn3C(=O)NCc2ccc([N+](=O)[O-])cc2)[C@@]2(C)C3C(=O)CC[C@@]3(CC[C@H]2C)[C@@H](C)[C@@H]1O` (some centres undefined) has an MIC (Staphylococcus aureus [1]) of 0.25 µg/mL (≈ 0.354 µM), an MIC (Staphylococcus aureus [2]) of 0.25 µg/mL (≈ 0.354 µM) and an MIC [3] of 0.0625 µg/mL (≈ 0.0885 µM). For the same compound, the MIC [4] was less than 0.0078 µg/mL, the MIC (Staphylococcus aureus [5]) was 0.125 µg/mL (≈ 0.177 µM) and the Ratio [6] was greater than 4. For the same compound, the Ratio (Staphylococcus aureus [7]) was greater than 4 and the MIC (Staphylococcus aureus [8]) was 0.0625 µg/mL (≈ 0.0885 µM).
`C=C[C@]1(C)C[C@@H](OC(=O)CSc2nc(N)nc3c2ncn3C(=O)Nc2ccccc2)[C@@]2(C)C3C(=O)CC[C@@]3(CC[C@H]2C)[C@@H](C)[C@@H]1O` (some centres undefined) showed an MIC (Staphylococcus aureus [1]) of 0.125 µg/mL (≈ 0.193 µM), an MIC (Staphylococcus aureus [2]) of 0.0625 µg/mL (≈ 0.0966 µM) and an MIC [3] of 0.125 µg/mL (≈ 0.193 µM). For the same compound, the MIC [4] was 0.0156 µg/mL (≈ 0.0241 µM), the MIC (Staphylococcus aureus [5]) was 0.125 µg/mL (≈ 0.193 µM) and the Ratio [6] was greater than 4. The Ratio (Staphylococcus aureus [7]) was greater than 4, the MIC (Staphylococcus aureus [8]) was 0.125 µg/mL (≈ 0.193 µM) and the Ratio (Staphylococcus aureus [9]) was 4.
`C=C[C@]1(C)C[C@@H](OC(=O)CSc2nc(NC(=O)CN3CCC(O)CC3)nc3[nH]cnc23)[C@@]2(C)C3C(=O)CC[C@@]3(CC[C@H]2C)[C@@H](C)[C@@H]1O` (some centres undefined) was tested, and the MIC (Staphylococcus aureus [1]) was 16 µg/mL (≈ 23.9 µM), the MIC (Staphylococcus aureus [2]) was 32 µg/mL (≈ 47.8 µM) and the MIC [3] was 2 µg/mL (≈ 2.99 µM). It also gave an MIC [4] of 2 µg/mL (≈ 2.99 µM), an MIC (Staphylococcus aureus [5]) of 16 µg/mL (≈ 23.9 µM) and a Ratio [6] greater than 4. It also gave a Ratio (Staphylococcus aureus [7]) greater than 4 and an MIC (Staphylococcus aureus [8]) of 16 µg/mL (≈ 23.9 µM).

Source: ChEMBL document CHEMBL5247680, “Design, Synthesis, and Biological Activity of Thioguanine-Modified Pleuromutilin Derivatives” (ACS Med Chem Lett, 2023)
